No end group written: not given here.
How the values were obtained:
[1] = tested on: T lymphocytes expressing CXCR5 in PBMCs of healthy donors; test: CXCR5 expression in T-lymphocytes after peptide stimulation (flow cytometry); type: cell-based, human; conditions: for Percentage of T-lymphocytes expressing CXCR5, 1st and 3rd quartine: 1st and 3rd quartile of 10 donors; for expression of CXCR5 with respect to CTR: T-lymphocytes, Friedman test, result in words; for Percentage of T-lymphocytes expressing CXCR5: peptides 5ug/ml, 4 days after third stimulation; for Percentage of T-lymphocytes expressing CXCR5, Median: median of 10 donors, * P = <0,001 (Friedman)
Protocol: In order to evaluate the expression of a specific marker (CXCR5) in cultured […], the cells, 4 days after the third stimulation, were washed twice and stained with anti-CXCR5, in PBS supplemented with 0.5% FCS and 0.01%NaN3 at 4°C. After twenty minutes they were washed twice and analysed on FACSCanto flow cytometer (Becton Dickinson). The data were analyzed using FlowJo software (TreeStar, CA, USA).
Table 3. The CXCR5 expression measured as % of T lymphocytes expressing CXCR5 in PBMCs of healthy donors vs total lymphocytes (median, 1st and 3rd quartile) has been reported. Friedman Repeated Measures Analysis of Variance on Ranks has been performed. Column 1: number of different donors (Pz); column 2: the percentage of control (CTR) not challenged T lymphocytes expressing CXCR5; columns 3-12: the percentage of T lymphocytes expressing CXCR5 after the stimulation with different peptides.
CXCR5, a chemokine transmembrane receptor belonging to the CXC chemokine receptor family plays an essential role in B cell activation (Legler D.F., et al., J. Exp. Med., 1998, 187, 4, 655). The CXCR5 expression was measured as % of T-lymphocytes expressing CXCR5 versus total lymphocytes (median, 1st and 3rd quartile) and Friedman Repeated Measures Analysis of Variance on Ranks was performed.

[2] = phase II studies, patients who received the vaccine; cited from earlier work
[3] = active vaccination, APP transgenic mice; cited from earlier work

Protocol for IFN-γ: To do this, the T-lymphocytes form peripheral blood mononuclear cells (PBMCs) response to Aβ[1-42] and Aβ[1-16], Aβ[1-16]-G, Aβ[1-16]+G, Aβ[13-28], Aβ[13-28]-G, Aβ[13-28]+G, Aβ[25-42], Aβ[25-42]-G, Aβ[25-42]+G was studied with the following experimental procedure:
In order to obtain mature dentritic cells, PBMCs from healthy donors were isolated by Ficoll-Hypaque gradient centrifugation (Pharmacia, Uppsala, Sweden). The cells were washed twice with PBS and finally were cultured at 10^6 cells/ml in RPMI 1640 supplemented with 10% (v/v) heat inactivated human serum (Bio Whittaker; Cambrex, Bioscience, Walkersville, MD Usa), 2mM L-glutamine, 20mM HEPES [N-2-hydroxyethylpiperazine-N'-2-ethanesulfonic acid], 1mM sodium pyruvate, 20mM non-essential amino acids, 55 µM 2-β-mercaptoethanol, 10 U/ml penicillin and streptomycin (Gibco and Invitrogen).
In order to obtain a pure culture of human peripheral blood monocytes, cells were purified by plastic adherence at 37°C for 30 minutes, followed by extensive washing with warm PBS to remove non-adherent cells. The monocytes were cultured in six-well plates (0,5 to 1,5 * 10^6 cells/m) in fresh complete medium supplemented with 1000U/ml of recombinant granulocyte-macrophage colony-stimulating factor (rGM-CSF) and 500U/ml interleukin-4 (IL-4, Pharmigen) for four days. The non-adherent mononuclear cells were washed repeatedly and cultured in 96-well round bottom plates (Nunc, Denmark) (10^6 cell/ml) in complete culture medium supplemented with interleukin-2 (IL-2; 5U/ml; Roche) for 4 days and used for subsequent studies. Monocytes-derived immature dendritic cells (DCs) were stimulated with the Aβ[1-16], Aβ[1-16]-G, Aβ[1-16]+G, Aβ[13-28], Aβ[13-28]-G, Aβ[13-28]+G, Aβ[25-42], Aβ[25-42]-G, Aβ[25-42]+G and Aβ[1-42] peptides (5ug/ml) for 1 day. For induction of dentritic cells (DC) maturation, the cells were stimulated with 50ng/ml TNFα (Pharmigen), 10ng/ml IL-6, 10ng/ml IL-1β, and 1µg/ml PGE2 for additional 2 days. Finally, they were cultured with autologous T-lymphocytes in 96-well flat bottom plates at a 1:4 ratio. A second stimulation with mature autologous monocyte-derived DC's previously stimulated with the peptides was performed at 10-14 days at the same ratios. Following further 10-14 days, lymphocytes were labelled with CFDA challenged with a third stimulation of monocyte-derived DC in the presence of peptides.
In order to evaluate the amount of IFN-γ produced by lymphocytes after the final third peptides stimulation the supernatants from cultured cells were harvested at 24 or 48 hr after the third stimulation. Cytokines were quantified by a standard-2-site sandwich enzyme-liked immunosorbent assay (ELISA). Abs for human IFN-γ were purchased from Pharmigen. Enhanced protein-binding ELISA plates (Nunc Maxisorb, Nunc Maxi, Roskilde, Denmark) were used.

Row | Substance | Percentage of T-lymphocytes expressing CXCR5, 1st and 3rd quartine [1] | expression of CXCR5 with respect to CTR [1] | Percentage of T-lymphocytes expressing CXCR5 ([1]; donor Pz1) [%] | Percentage of T-lymphocytes expressing CXCR5 ([1]; donor Pz2) [%] | Percentage of T-lymphocytes expressing CXCR5 ([1]; donor Pz3) [%] | Percentage of T-lymphocytes expressing CXCR5 ([1]; donor Pz4) [%] | Percentage of T-lymphocytes expressing CXCR5 ([1]; donor Pz5) | Percentage of T-lymphocytes expressing CXCR5 ([1]; donor Pz6) | Percentage of T-lymphocytes expressing CXCR5 ([1]; donor Pz7) | Percentage of T-lymphocytes expressing CXCR5 ([1]; donor Pz8) [%] | Percentage of T-lymphocytes expressing CXCR5 ([1]; donor Pz9) [%] | Percentage of T-lymphocytes expressing CXCR5 ([1]; donor Pz10) [%] | Percentage of T-lymphocytes expressing CXCR5, Median [1] | production of IFN-γ in challenged T-lymphocytes (IFN-γ) | patients who developed meningoencephalitis [2] | amyloid pathology [3]
1 | Seq.8: Aβ[25-42] fragment of the Aβ[1-42] sequence (GSNKGAIIGLMVGGVVIA) | 8.2-36.7% | statistically different expression of CXCR5 with respect to CTR | 19.00 | 13.06 | 64.04 | 0.08 | 8,2% | 7,3% | 15,8% | 45.00 | 36.07 | 36.00 | 17.4* % | statistically significative production of IFN-γ | – | –
2 | Seq.6: Aβ[13-28] fragment modified by introduction of glycines in alternate positions, at odd positions (-G) (GHGKGVGFGEGVGSGK) | 11.3-39.9% | statistically different expression of CXCR5 with respect to CTR | 22.04 | 23.03 | 25.09 | 0 | 13,4% | 7,3% | 14,6% | 43.03 | 31.03 | 29.05 | 21.7* % | statistically significative production of IFN-γ | – | –
3 | Seq.5: Aβ[13-28] fragment of the Aβ[1-42] sequence (HHQKLVFFAEDVGSNK) | 8.5-30.4% | statistically different expression of CXCR5 with respect to CTR | 15.05 | 23.05 | 12.08 | 1.02 | 8,5% | 7,4% | 13,5% | 45.01 | 33.00 | 30.04 | 14.5* % | statistically significative production of IFN-γ | – | –
4 | Seq.1: Aβ[1-42] synthetic peptide, neurotoxic β amyloid peptide [reference compound] | 8.6-40.2% | statistically different expression of CXCR5 with respect to CTR | 19.06 | 15.07 | 68.0 | 0.09 | 8,6% | – | 13,3% | – | – | – | 17.7* % | statistically significative production of IFN-γ | – | –
5 | GGNGGGIGGGMGGGVGIG [Seq.10] | – | – | – | – | – | – | – | – | – | – | – | – | – | statistically significative production of IFN-γ | – | –
6 | Seq.9: Aβ[25-42] fragment modified by introduction of glycines in alternate positions, at odd positions (-G) (GSGKGAGIGLGVGGGVGA) | 9.2-33.4% | statistically different expression of CXCR5 with respect to CTR | 23.01 | 15.02 | 11.03 | 0.08 | 11,3% | 7,5% | 13,4% | 61.07 | 36.01 | 34.06 | 14.9* % | statistically significative production of IFN-γ | – | –
7 | Seq.3: Aβ[1-16] fragment modified by introduction of glycines in alternate positions, at odd positions (-G) (GAGFGHGSGYGVGHGK) | 14.1-39.9% | statistically different expression of CXCR5 with respect to CTR | 16.05 | 20.05 | 64.01 | 2.09 | 9,5% | 6,9% | 14,7% | 40.06 | 35.03 | 36.00 | 30.6* % | statistically significative production of IFN-γ | – | –
8 | AN1792: aggregated Aβ[1-42], first βA active vaccination (Pharmaceuticals Inc/Wyeth Pharmaceuticals) | – | – | – | – | – | – | – | – | – | – | – | – | – | – | about 6% | showed improvement in amyloid pathology
